# Results as given in patent US12178840B2, “Method and compositions comprising a CT20 peptide” (UNIVERSITY OF CENTRAL FLORIDA RESEARCH FOUNDATION, INC., priority 2014, dated 2024).
# Residues, ends and D or L forms follow the SMILES beside them.
# Key:
# [1] = system: MDA-MB-231 subcutaneous tumors; experiment: Tumor growth in mice bearing subcutaneous MDA-MB-231 tumors, nanoparticle treatment; format: in vivo
# Text: Referring to FIG. 2A, the graph summarizes the results with FOL-NPs that were empty, contained Doxorubicin (DOX), or CT20, and are compared to COOH-NPs with CT20. Referring to FIG. 2B, representative ultrasound data is shown from mice treated with PBS or FOL-CT20-NPs. Arrows indicate treatment times. *p<0.05.
# To test the ability of CT20 to inhibit tumor growth, HBPE-NPs were modified with folate (FOL) to target the folate receptor (FR) (Boohaker, R. J., et al. (2012) Mol. Pharm. 7, 2080-2093; Lee, M. W., et al. (2014) Cell Death Dis. 5). FR targeting enabled concentration of the HBPE-NPs in murine tumors during systemic delivery. FIG. 2 is a representative animal experiment in which MDA-MB-231 cells were used to form subcutaneous tumors. Mice (n=5) were treated with two subcutaneous injections of nanoparticles (2 mg/kg/dose) over a five week period. […] Referring to FIG. 2B, representative ultrasound data is shown from mice treated with PBS or FOL-CT20-NPs. Arrows indicate treatment times. *p<0.05.
# CCTβ = target: T1, CCTβ (Homo sapiens, UniProt P78371); experiment: Lysate pull-down with CT20p-biotin, immunoblot for CCTβ; format: binding; conditions: TNBC cell lines and MCF-10A lysates; more so in the MSL subtypes
# T1 construct: probing lysates from the TNBC cell lines and MCF-10A cells with CT20p-biotin; endogenous in cells; host or cells: lysates of MDA-MB-231, MDA-MB-436, MDA-MB-468, BT-549 and MCF-10A cells
# Experimental: Immunoblotting: Cell lysates were obtained by mechanical douncing in fractionation buffer consisting of 210 mM sucrose, 70 mM mannitol, 10 mM HEPES, 1 mM EDTA, pH 7.4. Lysates were centrifuged at 1,000×g for 10 minutes at 4° C., and the supernatants were subjected to SDS-PAGE, followed by transfer to Immobilon-FL membranes (Millipore). Blots were probed with primary antibodies against CCTβ (Millipore), […]. (Abcam), CCTε (Abcam), or p38 (Santa Cruz). Detection was performed by incubation with IRDye 800CW or IRDye 680CW secondary antibodies (LI-COR), followed by imaging on the Oddysey detection system (LI-COR). Quantificition of Western blots was performed with Image Studio software (LI-COR). Proteins of interest were quantified relative to p38 loading controls, then normalized to the level in MCF-10A cells.
# Pull down experiments: Lysate pull-downs were performed with 200 ug cell lysate, obtained by douncing as described above. Lysates were pre-cleared with streptavidin-agarose beads (Pierce), then incubated with […] of CT20-Biotin or biotin for 3 hours at room temperature, followed by overnight incubation at 4° C. with streptavidin-agarose beads. Beads were washed thoroughly with wash buffer (25 mM Tris, 150 mM NaCl, 0.1% NP40, pH7.4), then heated in 4× loading buffer (Invitrogen) for analysis by SDS-PAGE. Mass spectrometric analysis was performed by Moffit Cancer Center (Tampa, FL). […]
# MDA-MB-231 cells = experiment: Migration assay (Oris exclusion zone); format: cell-based, human; conditions: 24 hours treatment, 10 hours migration
# Experimental: Migration assay: The Oris cell migration assembly kit (Platypus Technologies) was used. Cells were stained with CellTrace Violet (Life Technologies) according to manufacturer's protocol. Stoppers were placed in wells of a 96-well plate before cells were seeded at a density of 30,000 cells per well. For experiments involving CT20p treatment, treatments with CT20p were began 18 hours following seeding and allowed to continue for 24 hours. Treatments were done in quadruplicate. At the end of the treatment period, stoppers were removed to create an exclusion zone that the cells would migrate into. MDA-MB-231 cells were allowed to migrate for 10 hours. MCF-10A and MCF-10A EMT cells were allowed to migrate for 20 hours. Following the migration period, fluorescent images were obtained using a Plate Runner HD (Trophos). […] Images were analyzed by ImageJ software (NIH) by using the wand tool to automatically define and measure the migration zone. % closure was calculated as [(pre migration area−migration area)/pre migration area]×100.
# Observations on the effects of CT20p on breast cancer cells include loss of actin distribution throughout the cell, especially in the filapodia (FIG. 3C). […] Immediately following removal of the stoppers, the pre-migration area can be determined. […] After quantification of the areas as described in Materials & Methods, % closure was calculated for each condition (FIG. 11B). […]
compound,measurement,setting,value
CC[C@H](C)[C@H](NC(=O)[C@@H](NC(=O)[C@H](CC(C)C)NC(=O)[C@H](CO)NC(=O)[C@H](C)NC(=O)[C@@H](NC(=O)[C@H](CC(C)C)NC(=O)[C@@H](NC(=O)CNC(=O)[C@H](C)NC(=O)[C@@H](NC(=O)[C@H](Cc1ccccc1)NC(=O)[C@@H](NC(=O)[C@@H](NC(=O)[C@@H](NC(C)=O)C(C)C)[C@@H](C)O)[C@@H](C)CC)C(C)C)C(C)C)[C@@H](C)O)[C@@H](C)O)C(=O)N[C@@H](Cc1c[nH]c2ccccc12)C(=O)N[C@@H](CCCCN)C(=O)N[C@@H](CCCCN)C(=O)N[C@@H](CCSC)C(=O)NCC(N)=O [CT20] (Ac-VTIFVAGVLTASLTIWKKMG-NH2),Effectiveness compared with Doxorubicin,[1]; CT20 delivered in HBPE-NPs,"as effective, if not more, than drugs such as Doxorubicin"
same,Inhibition of tumor growth,[1]; two subcutaneous injections of nanoparticles (2 mg/kg/dose) over five weeks,caused tumor regression
same,Interaction with CCTβ in cell lysates,CCTβ,able to interact with CCTβ in all cell lines
same,Effect on migration (% closure of exclusion zone),MDA-MB-231 cells; 75 μg/mL,significantly impaired movement
same,Effect on migration (% closure of exclusion zone),MDA-MB-231 cells; 150 μg/mL,nearly eliminated
